Experimental data as given in US9193736B2, “PDE 10a inhibitors for the treatment of type II diabetes” (Janssen Pharmaceutica, NV, priority 2013, dated 2015).
Where a name gives a salt, the structure may show the parent alone.

Assays:
[1] = target: Rat recombinant PDE10a (rPDE10a) (Rattus norvegicus (Rat), UniProt Q9QYJ6); assay: In vitro assay PDE10a: rat recombinant PDE10a SPA with 3H-cAMP substrate, IC50; assay type: biochemical; settings: 60 nM cAMP, read-out: rPDE10a2 IC50
Method: In Vitro Assay PDE10a Rat recombinant PDE10a (rPDE10a) was expressed in Sf9 cells using a recombinant rPDE10a baculovirus construct. Cells were harvested after 48 h of infection and the rPDE10a protein was purified by metal chelate chromatography on Ni-sepharose 6FF. Tested compounds were dissolved and diluted in 100% DMSO to a concentration 100 fold of the final concentration in the assay. […] The reaction was incubated for 60 min at rt. After incubation, the reaction was stopped with 20 μL of 17.8 mg/mL PDE SPA beads. […] For blank values the enzyme was omitted from the reaction and replaced by incubation buffer.

[2] = target: Human recombinant PDE10A2 (Homo sapiens (Human), UniProt Q9Y233); assay: In vitro hPDE10a: human recombinant PDE10A2 scintillation proximity assay, IC50; assay type: biochemical; settings: human recombinant PDE10A2, SPA, 60 nM cAMP; read-out: hPDE10a2 IC50
Human recombinant PDE10A2, sequence (Q9Y233 267-1055): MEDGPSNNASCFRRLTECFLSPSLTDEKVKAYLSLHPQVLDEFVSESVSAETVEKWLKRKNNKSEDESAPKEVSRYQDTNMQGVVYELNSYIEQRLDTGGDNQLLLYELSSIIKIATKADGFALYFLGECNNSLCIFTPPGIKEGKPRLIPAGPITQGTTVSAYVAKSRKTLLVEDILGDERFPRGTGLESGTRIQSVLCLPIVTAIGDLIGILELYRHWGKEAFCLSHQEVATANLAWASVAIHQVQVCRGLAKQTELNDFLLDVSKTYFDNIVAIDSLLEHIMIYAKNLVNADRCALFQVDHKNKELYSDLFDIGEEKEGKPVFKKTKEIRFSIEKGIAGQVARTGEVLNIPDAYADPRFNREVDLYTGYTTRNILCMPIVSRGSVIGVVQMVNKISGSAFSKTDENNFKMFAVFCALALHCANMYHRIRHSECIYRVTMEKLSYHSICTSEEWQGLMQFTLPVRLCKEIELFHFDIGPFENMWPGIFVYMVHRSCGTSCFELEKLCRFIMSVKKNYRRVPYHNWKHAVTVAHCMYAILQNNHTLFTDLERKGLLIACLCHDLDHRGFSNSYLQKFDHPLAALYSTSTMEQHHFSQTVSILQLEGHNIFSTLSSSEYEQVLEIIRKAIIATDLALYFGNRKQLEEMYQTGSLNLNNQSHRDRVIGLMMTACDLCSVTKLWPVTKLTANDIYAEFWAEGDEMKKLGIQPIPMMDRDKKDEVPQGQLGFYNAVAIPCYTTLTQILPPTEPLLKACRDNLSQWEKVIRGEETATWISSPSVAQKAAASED
Method: Cells were harvested and the phosphodiesterase protein was purified by metal chelate chromatography on Ni-sepharose 6FF. The affinity of the compounds of Formula (I) for phophodiesterases (PDE) was measured by a scintillation proximity assay (SPA). PDE Yttrium Silicate SPA beads allow PDE activity to be measured by direct binding of the primary phosphate groups of non-cyclic AMP or GMP to the beads via a complex iron chelation mechanism. The amount of bound tritiated product ([^3H]-AMP) is measured by liquid scintillation counting. The compounds were dissolved and diluted in 100% DMSO in polystyrene plates to a concentration of 100-fold the final concentration in the assay. […] After incubation, the reaction was stopped with 20 μL of stop solution, consisting of PDE SPA beads (17.8 mg beads/mL in 18 mM zinc sulphate). […] To measure the low control, no enzyme was added to the reaction mixture. Data were calculated as the percentage of inhibition of total activity measured in the absence of test compound (% control). […] For compounds tested more than once, the data points were aggregated.

Rat recombinant PDE10a (rPDE10a), sequence (Q9QYJ6 whole entry): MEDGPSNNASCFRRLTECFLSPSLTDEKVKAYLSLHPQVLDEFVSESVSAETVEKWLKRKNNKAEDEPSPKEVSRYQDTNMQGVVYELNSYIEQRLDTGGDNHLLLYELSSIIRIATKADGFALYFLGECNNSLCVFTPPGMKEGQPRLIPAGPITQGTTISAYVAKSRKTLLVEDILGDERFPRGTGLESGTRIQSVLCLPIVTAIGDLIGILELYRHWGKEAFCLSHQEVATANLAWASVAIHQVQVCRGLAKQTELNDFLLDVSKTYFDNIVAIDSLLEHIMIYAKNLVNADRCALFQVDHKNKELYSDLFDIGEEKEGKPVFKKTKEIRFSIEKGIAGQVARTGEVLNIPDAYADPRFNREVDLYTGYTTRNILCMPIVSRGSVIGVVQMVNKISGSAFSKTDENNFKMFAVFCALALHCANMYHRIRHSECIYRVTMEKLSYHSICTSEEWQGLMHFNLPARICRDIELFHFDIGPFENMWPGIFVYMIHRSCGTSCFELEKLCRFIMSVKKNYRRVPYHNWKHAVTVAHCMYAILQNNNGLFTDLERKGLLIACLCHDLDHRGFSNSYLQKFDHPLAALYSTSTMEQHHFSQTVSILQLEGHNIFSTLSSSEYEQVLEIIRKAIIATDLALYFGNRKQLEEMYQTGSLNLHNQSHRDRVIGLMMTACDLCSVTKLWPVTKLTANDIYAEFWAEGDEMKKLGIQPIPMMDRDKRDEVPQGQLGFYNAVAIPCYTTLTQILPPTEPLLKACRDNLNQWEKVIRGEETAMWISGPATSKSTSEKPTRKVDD

SMILES	IC50 [1] [nM]	IC50 [2] [nM]
c1ccc2nc(CNc3nc4c(N5CCOCC5)ccnn4c3-c3ccc(N4CCNCC4)nc3)ccc2c1 [Cpd 11, 8-Morpholino-3-(6-(piperazin-1-yl)pyridin-3-yl)-N-(quinolin-2-ylmethyl)imidazo[1,2-b]pyridazin-2-amine trifluoroacetic acid salt]	25	55
c1ccc2nc(CCc3nc4c(N5CCOCC5)ccnn4c3-c3ccc(N4CCNCC4)nc3)ccc2c1 [Cpd 13, 4-(3-(6-(piperazin-1-yl)pyridin-3-yl)-2-(2-(quinolin-2-yl)ethyl)imidazo[1,2-b]pyridazin-8-yl)morpholine trifluoroacetic acid salt]	14	20
c1ccc2ncc(OCCc3nc4c(N5CCOCC5)ccnn4c3-c3ccc(N4CCNCC4)nc3)cc2c1 [Cpd 14, 4-(3-(6-(Piperazin-1-yl)pyridin-3-yl)-2-(2-(quinolin-3-yloxy)ethyl)imidazo[1,2-b]pyridazin-8-yl)morpholine trifluoroacetic acid salt]	776	955
CN1CCN(c2ccc(-c3c(CN(C)c4ccc5ccccc5n4)nc4c(N5CCOCC5)ccnn34)cn2)CC1 [Cpd 15, N-Methyl-N-((3-(6-(4-methylpiperazin-1-yl)pyridin-3-yl)-8-morpholinoimidazo[1,2-b]pyridazin-2-yl)methyl)quinolin-2-amine trifluoroacetic acid salt]	269	676
Oc1ccc(-c2c(/C=C/c3ccc4ccccc4n3)nc3c(N4CCOCC4)ccnn23)cn1 [Cpd 16, (E)-5-(8-Morpholino-2-(2-(quinolin-2-yl)vinyl)imidazo[1,2-b]pyridazin-3-yl)pyridin-2-ol]	6	6
Nc1ccc(-c2c(/C=C/c3ccc4ccccc4n3)nc3c(N4CCOCC4)ccnn23)cn1 [Cpd 18, (E)-5-(8-Morpholino-2-(2-(quinolin-2-yl)vinyl)imidazo[1,2-b]pyridazin-3-yl)pyridin-2-amine]	3	6
C(=C\c1nc2c(N3CCOCC3)ccnn2c1-c1ccc(-c2nnn[nH]2)nc1)/c1ccc2ccccc2n1 [Cpd 19, 2-[(E)-2-{8-Morpholin-4-yl-3-[6-(1H-tetrazol-5-yl)pyridin-3-yl]imidazo[1,2-b]pyridazin-2-yl}ethenyl]quinoline]	3	2
C(=C\c1nc2c(N3CCOCC3)ccnn2c1-c1ccc(Sc2cnn[nH]2)nc1)/c1ccc2ccccc2n1 [Cpd 23, 2-[(E)-2-{8-Morpholin-4-yl-3-[6-(1H-1,2,3-triazol-5-ylsulfanyl)pyridin-3-yl]imidazo[1,2-b]pyridazin-2-yl}ethenyl]quinoline]	6	8
O=C(O)CN1CCC(c2c(/C=C/c3ccc4ccccc4n3)nc3c(N4CCOCC4)ccnn23)CC1 [Cpd 29, (E)-2-(4-(8-Morpholino-2-(2-(quinolin-2-yl)vinyl)imidazo[1,2-b]pyridazin-3-yl)piperidin-1-yl)acetic acid trifluoroacetic acid salt]	49	39
c1ccc2nc(CCc3nc4c(N5CCOCC5)ccnn4c3-c3ccc(-c4nnn[nH]4)nc3)ccc2c1 [Cpd 31, 4-(3-(6-(1H-Tetrazol-5-yl)pyridin-3-yl)-2-(2-(quinolin-2-yl)ethyl)imidazo[1,2-b]pyridazin-8-yl)morpholine trifluoroacetic acid salt]	< 1	1
c1ccc2nc(SCc3nc4c(N5CCOCC5)ccnn4c3-c3ccc(-c4nnn[nH]4)nc3)ccc2c1 [Cpd 32, 4-(3-(6-(1H-Tetrazol-5-yl)pyridin-3-yl)-2-((quinolin-2-ylthio)methyl)imidazo[1,2-b]pyridazin-8-yl)morpholine trifluoroacetic acid salt]	1	2
O=c1[nH]c(-c2ccc(-c3c(/C=C/c4ccc5ccccc5n4)nc4c(N5CCOCC5)ccnn34)cn2)no1 [Cpd 34, (E)-3-(5-(8-Morpholino-2-(2-(quinolin-2-yl)vinyl)imidazo[1,2-b]pyridazin-3-yl)pyridin-2-yl)-1,2,4-oxadiazol-5(4H)-one]	2	3

Now from value to molecule:

IC50 [1] [nM]	IC50 [2] [nM]	SMILES
7	5	O=c1[nH]c(-c2ccc(-c3c(COc4ccc5ccccc5n4)nc4c(N5CCOCC5)ccnn34)cn2)no1 [Cpd 35, 3-(5-(8-Morpholino-2-((quinolin-2-yloxy)methyl)imidazo[1,2-b]pyridazin-3-yl)pyridin-2-yl)-1,2,4-oxadiazol-5(4H)-one]
< 1	1	O=c1[nH]c(-c2ccc(-c3c(CCc4ccc5ccccc5n4)nc4c(N5CCOCC5)ccnn34)cn2)no1 [Cpd 37, 3-(5-(8-Morpholino-2-(2-(quinolin-2-yl)ethyl)imidazo[1,2-b]pyridazin-3-yl)pyridin-2-yl)-1,2,4-oxadiazol-5(4H)-one]
4	6	CS(=O)(=O)NC(=O)Nc1ccc(-c2c(CCc3ccc4ccccc4n3)nc3c(N4CCOCC4)ccnn23)cc1 [Cpd 51, N-({4-[8-Morpholin-4-yl-2-(2-quinolin-2-ylethyl)imidazo[1,2-b]pyridazin-3-yl]phenyl}carbamoyl)methanesulfonamide]
7	4	O=c1ncn(-c2ccc(-c3c(/C=C/c4ccc5ccccc5n4)nc4c(N5CCOCC5)ccnn34)cn2)[nH]1 [Cpd 56, (E)-1-(5-(8-Morpholino-2-(2-(quinolin-2-yl)vinyl)imidazo[1,2-b]pyridazin-3-yl)pyridin-2-yl)-1,2-dihydro-1,2,4-triazol-3-one trifluoroacetic acid salt]
1	1	O=C(O)c1ccc(-c2c(/C=C/c3ccc4ccccc4n3)nc3c(N4CCOCC4)ccnn23)s1 [Cpd 57, (E)-5-(8-Morpholino-2-(2-(quinolin-2-yl)vinyl)imidazo[1,2-b]pyridazin-3-yl)thiophene-2-carboxylic acid]
4	2	O=C(O)c1ccc(-c2c(/C=C/c3ccc4ccccc4n3)nc3c(N4CCOCC4)ccnn23)o1 [Cpd 58]
6	5	O=c1ncn(-c2ccc(-c3c(CCc4ccc5ccccc5n4)nc4c(N5CCOCC5)ccnn34)cc2)[nH]1 [Cpd 59, 1-(4-(8-Morpholino-2-(2-(quinolin-2-yl)ethyl)imidazo[1,2-b]pyridazin-3-yl)phenyl)-1,2-dihydro-1,2,4-triazol-3-one trifluoroacetic acid salt]
9	4	O=c1[nH]nnn1-c1ccc(-c2c(CCc3ccc4ccccc4n3)nc3c(N4CCOCC4)ccnn23)cc1 [Cpd 62, 1-(4-(8-Morpholino-2-(2-(quinolin-2-yl)ethyl)imidazo[1,2-b]pyridazin-3-yl)phenyl)-1H-tetrazol-5(4H)-one]
5	9	O=C(O)CNC(=O)c1ccc(-c2c(/C=C/c3ccc4ccccc4n3)nc3c(N4CCOCC4)ccnn23)cc1 [Cpd 66, (E)-2-(4-(8-Morpholino-2-(2-(quinolin-2-yl)vinyl)imidazo[1,2-b]pyridazin-3-yl)benzamido)acetic acid]
6	5	O=C(O)CNC(=O)c1ccc(-c2c(CCc3ccc4ccccc4n3)nc3c(N4CCOCC4)ccnn23)cc1 [Cpd 68, 2-(4-(8-Morpholino-2-(2-(quinolin-2-yl)ethyl)imidazo[1,2-b]pyridazin-3-yl)benzamido)acetic acid trifluoroacetic acid salt]
7	4	O=C1NC(=O)C(c2ccc(-c3c(CCc4ccc5ccccc5n4)nc4c(N5CCOCC5)ccnn34)cc2)O1 (stereo not shown) [Cpd 70, 5-(4-(8-Morpholino-2-(2-(quinolin-2-yl)ethyl)imidazo[1,2-b]pyridazin-3-yl)phenyl)oxazolidine-2,4-dione]
8	6	O=C(O)[C@@H]1CCCN1C(=O)c1ccc(-c2c(/C=C/c3ccc4ccccc4n3)nc3c(N4CCOCC4)ccnn23)cc1 [Cpd 71, (S,E)-1-(4-(8-Morpholino-2-(2-(quinolin-2-yl)vinyl)imidazo[1,2-b]pyridazin-3-yl)benzoyl)pyrrolidine-2-carboxylic acid trifluoroacetic acid salt]
8	6	O=C(O)[C@@H]1CCCN1C(=O)c1ccc(-c2c(CCc3ccc4ccccc4n3)nc3c(N4CCOCC4)ccnn23)cc1 [Cpd 72, (S)-1-(4-(8-Morpholino-2-(2-(quinolin-2-yl)ethyl)imidazo[1,2-b]pyridazin-3-yl)benzoyl)pyrrolidine-2-carboxylic acid trifluoroacetic acid salt]
7	8	CC(C)[C@H](NC(=O)c1ccc(-c2c(/C=C/c3ccc4ccccc4n3)nc3c(N4CCOCC4)ccnn23)cc1)C(=O)O [Cpd 73, (S,E)-3-Methyl-2-(4-(8-morpholino-2-(2-(quinolin-2-yl)vinyl)imidazo[1,2-b]pyridazin-3-yl)benzamido)butanoic acid trifluoroacetic acid salt]
